In patent EP3722296B1, “DIHYDRONAPHTHYRIDINES AND RELATED COMPOUNDS USEFUL AS KINASE INHIBITORS FOR THE TREATMENT OF PROLIFERATIVE DISEASES” (Deciphera Pharmaceuticals, LLC, priority 2012, dated 2013):

Legend:
Type in all cases: cell-based
GIST430 cells = test: GIST 430 Cell Proliferation Assay; details: Homo sapiens, 120 h, 115 hours + 5 hours resazurin
Description: GIST48, GIST430, and GIST882 cells were obtained from J. Fletcher (Brigham and Women's Hospital, Boston, MA). GIST T1 cells were obtained from B. Rubin (Cleveland Clinic, Cleveland, OH) and Professor Takahiro Taguchi (Kochi Medical School, Nankoku, Kochi, Japan). Briefly, GIST48 and GIST 882 cells were grown in RPMI 1640 medium supplemented with 15% characterized fetal bovine serum (Invitrogen, Carlsbad, CA), 1 unit/mL penicillin G, 1 µg/ml streptomycin, and 0.29 mg/mL L-glutamine at 37 °C, 5% CO2, and 95% humidity. GIST430 cells were grown in Ham's F10 medium supplemented with 15% characterized fetal bovine serum (Invitrogen, Carlsbad, CA), 30 mg/L bovine pituitary extract (BD Biosciences, San Jose, CA), 0.5% Mito+ serum extender (BD Biosciences, San Jose, CA), 1 unit/mL penicillin G, 1 µg/ml streptomycin, and 0.29 mg/mL L-glutamine at 37 °C, 5%CO2, 95% humidity. GIST T1 cells were grown in DMEM medium supplemented with 10% characterized fetal bovine serum (Invitrogen, Carlsbad, CA), 1 unit/mL penicillin G, 1 µg/ml streptomycin, and 0.29 mg/mL L-glutamine at 37 °C, 5% CO2, and 95% humidity.
A serial dilution of test compound was dispensed into a 384-well black clear bottom plate (Corning, Corning, NY). Two thousand five-hundred cells were added per well in 50 µL complete growth medium. Plates were incubated for 115 hours at 37°C, 5% CO2, 95% humidity. At the end of the incubation period 10 µL of a 440 µM solution of resazurin (Sigma, St. Louis, MO) in PBS was added to each well and incubated for an additional 5 hours at 37°C, 5% CO2, 95% humidity. Plates were read on a Synergy2 reader (Biotek, Winooski, VT) using an excitation of 540 nm and an emission of 600 nm.

[1] = biological target: T1, WKV557-559 deletion/C557insertion/D820A (Homo sapiens, UniProt P10721, D820A/DEL557-558/V559C); test: CHO K1 phospho-KIT ELISA; details: transient transfected CHO K1 cells, phospho-c-KIT (Tyr719), read-out: KIT kinase domain mutations (primary/secondary): WKV557-559 deletion
T1 construct: V5 (vector-encoded); expressed in transfected cells; host or cells: CHO K1
T1 sequence (P10721 with tags, fused parts or gaps DEL557-558/V559C/D820A): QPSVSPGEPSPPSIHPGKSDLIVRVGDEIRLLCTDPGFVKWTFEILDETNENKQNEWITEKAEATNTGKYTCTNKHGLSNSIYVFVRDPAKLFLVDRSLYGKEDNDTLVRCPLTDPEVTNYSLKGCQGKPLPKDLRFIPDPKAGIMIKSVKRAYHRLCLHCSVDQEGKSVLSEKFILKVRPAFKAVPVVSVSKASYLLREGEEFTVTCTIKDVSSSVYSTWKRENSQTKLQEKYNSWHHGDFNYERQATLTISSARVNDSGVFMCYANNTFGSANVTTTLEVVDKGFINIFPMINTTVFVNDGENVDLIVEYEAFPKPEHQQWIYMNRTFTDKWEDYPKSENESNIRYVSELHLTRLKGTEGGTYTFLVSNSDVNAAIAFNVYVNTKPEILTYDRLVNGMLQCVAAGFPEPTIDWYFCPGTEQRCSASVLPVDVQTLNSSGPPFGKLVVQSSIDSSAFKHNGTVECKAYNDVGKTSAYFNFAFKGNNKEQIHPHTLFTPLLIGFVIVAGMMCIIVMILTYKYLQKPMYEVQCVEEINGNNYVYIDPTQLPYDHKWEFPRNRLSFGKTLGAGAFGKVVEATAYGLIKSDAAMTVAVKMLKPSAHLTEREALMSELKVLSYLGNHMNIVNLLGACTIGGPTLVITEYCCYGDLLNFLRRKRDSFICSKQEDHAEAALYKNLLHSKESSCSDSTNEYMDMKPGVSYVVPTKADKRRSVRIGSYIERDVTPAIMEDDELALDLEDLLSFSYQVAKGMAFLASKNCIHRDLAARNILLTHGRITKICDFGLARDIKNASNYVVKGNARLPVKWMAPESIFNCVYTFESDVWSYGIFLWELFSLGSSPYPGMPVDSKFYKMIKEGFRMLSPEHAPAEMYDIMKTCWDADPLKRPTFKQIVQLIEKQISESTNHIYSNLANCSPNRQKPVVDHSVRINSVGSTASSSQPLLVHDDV
Description: (§2) CHO K1 cells (catalog #CCL-61) were obtained from the American Type Culture Collection, Manassas, VA. […] Cells were allowed to expand until reaching 70-95% confluency at which point they were subcultured or harvested for assay use.
(§3) Cells were then incubated overnight at 37°C, 5% CO2, 95% RH. Transfection-grade pcDNA3.2 V5 DEST expression vector containing KIT variant, Lipofectamine LTX Reagent, and PLUS reagent (Invitrogen, Carlsbad, CA) were diluted into Opti-MEM® I medium (Invitrogen, Carlsbad, CA). The tube was incubated at room temperature to allow formation of DNA-Lipofectamine LTX complexes. The DNA-lipofectamine LTX complex mix was added directly to each well and mixed gently. Eighteen hours post-transfection, medium was replaced with serum-free RPMI medium. A serial dilution of test compound was added, and plates were incubated for 4 hours at 37°C, 5% CO2, 95% RH. Cell lysates were prepared, then phospho-c-KIT (Tyr719) was measured by using a Human phospho-c-KIT ELISA kit (Cell Signaling, Beverly, MA). Data was analyzed using Prism software (Graphpad, San Diego, CA) to calculate IC50 values.

[2] = biological target: T2, VV559-560 deletion/D816V KIT (Homo sapiens, UniProt P10721, D816V/DEL559-560); test: CHO K1 phospho-KIT Western; details: transient transfected CHO K1 cells, phospho-KIT (Tyr719), read-out: KIT kinase domain mutations (primary/secondary): VV559-560 deletion / D816V
T2 construct: expressed in transfected cells; host or cells: CHO K1
T2 sequence (P10721 with tags, fused parts or gaps DEL559-560/D816V): as the sequence (P10721 with tags, fused parts or gaps DEL557-558/V559C/D820A) above, with C532W, V533K, D789V, A793D counted along it
Description: (§1) Cells were washed with PBS, then lysed. Cell lysates were separated by SDS-PAGE and transferred to PVDF. Phospho-KIT (Tyr719) was detected using an antibody from Cell Signaling Technology (Beverly, MA), ECL Plus detection reagent (GE Healthcare, Piscataway, NJ) and a Molecular Devices Storm 840 phosphorimager in fluorescence mode. Blots were stripped and probed for total KIT using an antibody from Santa Cruz Biotech (Santa Cruz, CA). IC50 values were calculated using Prism software (Graphpad, San Diego, CA).

D820A KIT = biological target: T3, D820A KIT (Homo sapiens, UniProt P10721, D820A); test: CHO K1 phospho-KIT Western; details: transient transfected CHO K1 cells, phospho-KIT (Tyr719), read-out: KIT kinase domain mutations (primary/secondary): D820A
T3 construct: V5 (vector-encoded); expressed in transfected cells; host or cells: CHO K1
T3 sequence (P10721 26-976 D820A): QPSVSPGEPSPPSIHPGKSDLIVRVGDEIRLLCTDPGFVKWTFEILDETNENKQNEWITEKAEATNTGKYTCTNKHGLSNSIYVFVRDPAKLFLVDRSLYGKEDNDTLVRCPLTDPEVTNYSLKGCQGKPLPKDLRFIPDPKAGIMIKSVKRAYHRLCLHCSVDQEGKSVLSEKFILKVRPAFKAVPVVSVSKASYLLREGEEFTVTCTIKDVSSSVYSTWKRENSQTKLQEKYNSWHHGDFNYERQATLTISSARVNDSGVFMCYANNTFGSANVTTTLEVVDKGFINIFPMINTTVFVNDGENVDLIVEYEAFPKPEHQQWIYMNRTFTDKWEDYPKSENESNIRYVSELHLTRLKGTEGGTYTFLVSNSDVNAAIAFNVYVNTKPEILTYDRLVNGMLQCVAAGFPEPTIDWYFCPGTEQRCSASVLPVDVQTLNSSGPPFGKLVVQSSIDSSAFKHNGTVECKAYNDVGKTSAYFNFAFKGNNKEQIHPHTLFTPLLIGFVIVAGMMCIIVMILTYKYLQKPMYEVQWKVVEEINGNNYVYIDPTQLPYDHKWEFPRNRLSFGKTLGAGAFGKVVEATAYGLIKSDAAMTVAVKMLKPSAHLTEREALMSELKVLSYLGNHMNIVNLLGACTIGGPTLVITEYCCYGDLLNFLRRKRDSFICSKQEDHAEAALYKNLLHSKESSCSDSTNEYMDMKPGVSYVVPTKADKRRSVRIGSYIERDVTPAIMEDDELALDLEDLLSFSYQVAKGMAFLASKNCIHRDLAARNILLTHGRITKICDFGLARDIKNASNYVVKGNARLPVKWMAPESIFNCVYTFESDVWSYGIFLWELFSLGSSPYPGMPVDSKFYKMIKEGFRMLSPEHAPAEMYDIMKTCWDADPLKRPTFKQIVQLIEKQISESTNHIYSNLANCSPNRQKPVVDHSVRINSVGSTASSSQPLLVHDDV
Description: as §1

D816V KIT = biological target: T4, D816V KIT (Homo sapiens, UniProt P10721, D816V); test: CHO K1 phospho-KIT Western; details: transient transfected CHO K1 cells, phospho-KIT (Tyr719), read-out: KIT kinase domain mutations (primary/secondary): D816V
T4 construct: V5 (vector-encoded); expressed in transfected cells; host or cells: CHO K1
T4 sequence (P10721 26-976 D816V): as the sequence (P10721 26-976 D820A) above, with D791V, A795D counted along it
Description: as §1

V560D/Y823D = biological target: T5, V560D/Y823D (Homo sapiens, UniProt P10721, V560D/Y823D); test: CHO K1 phospho-KIT ELISA; details: transient transfected CHO K1 cells, phospho-c-KIT (Tyr719), read-out: KIT kinase domain mutations (primary/secondary): V560D / Y823D
T5 construct: V5 (vector-encoded); expressed in transfected cells; host or cells: CHO K1
T5 sequence (P10721 26-976 V560D/Y823D): as the sequence (P10721 26-976 D820A) above, with V535D, A795D, Y798D counted along it
Description: as §2, §3

[3] = biological target: T6, AY502 duplication/D816G KIT (Homo sapiens, UniProt P10721, D816G/DUP502-503); test: CHO K1 phospho-KIT ELISA; details: transient transfected CHO K1 cells, phospho-c-KIT (Tyr719), read-out: KIT kinase domain mutations (primary/secondary): AY502 duplication / D816G
T6 construct: V5 (vector-encoded); expressed in transfected cells; host or cells: CHO K1
T6 sequence (P10721 with tags, fused parts or gaps DUP502-503/D816G): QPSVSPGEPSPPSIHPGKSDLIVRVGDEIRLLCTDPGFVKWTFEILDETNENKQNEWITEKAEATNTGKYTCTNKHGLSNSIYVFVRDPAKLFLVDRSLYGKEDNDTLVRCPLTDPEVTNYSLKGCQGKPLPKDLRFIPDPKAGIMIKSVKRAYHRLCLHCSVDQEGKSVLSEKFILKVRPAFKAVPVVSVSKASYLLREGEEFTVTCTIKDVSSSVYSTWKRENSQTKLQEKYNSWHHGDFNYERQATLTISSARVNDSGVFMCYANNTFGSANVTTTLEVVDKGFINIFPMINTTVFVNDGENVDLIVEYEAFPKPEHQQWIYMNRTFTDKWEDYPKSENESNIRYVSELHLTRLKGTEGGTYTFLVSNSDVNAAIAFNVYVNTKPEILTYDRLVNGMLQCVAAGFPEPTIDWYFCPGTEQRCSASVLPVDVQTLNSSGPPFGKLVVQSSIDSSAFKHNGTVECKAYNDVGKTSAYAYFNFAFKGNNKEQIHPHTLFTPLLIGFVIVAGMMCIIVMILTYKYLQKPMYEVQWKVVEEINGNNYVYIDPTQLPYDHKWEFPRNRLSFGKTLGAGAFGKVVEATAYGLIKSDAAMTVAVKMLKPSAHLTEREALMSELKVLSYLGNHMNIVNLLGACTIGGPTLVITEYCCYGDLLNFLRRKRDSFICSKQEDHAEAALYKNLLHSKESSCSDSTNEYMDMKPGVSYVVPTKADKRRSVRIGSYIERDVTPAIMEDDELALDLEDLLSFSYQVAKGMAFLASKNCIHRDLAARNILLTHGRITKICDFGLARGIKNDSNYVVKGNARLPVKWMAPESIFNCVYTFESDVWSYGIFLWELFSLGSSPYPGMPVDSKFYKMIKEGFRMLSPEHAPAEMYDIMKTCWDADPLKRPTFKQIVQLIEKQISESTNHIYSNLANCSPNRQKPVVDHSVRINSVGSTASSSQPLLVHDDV
Description: as §2, §3

V560D/N822K = biological target: T7, V560D/N822K (Homo sapiens, UniProt P10721, N822K/V560D); test: CHO K1 phospho-KIT ELISA; details: transient transfected CHO K1 cells, phospho-c-KIT (Tyr719), read-out: KIT kinase domain mutations (primary/secondary): V560D / N822K
T7 construct: V5 (vector-encoded); expressed in transfected cells; host or cells: CHO K1
T7 sequence (P10721 26-976 V560D/N822K): as the sequence (P10721 26-976 D820A) above, with V535D, A795D, N797K counted along it
Description: as §2, §3

Row | SMILES | IC50 (GIST430 cells) [nM] | IC50 [1] [nM] | IC50 [2] [nM] | IC50 (D820A KIT) [nM] | IC50 (D816V KIT) [nM] | IC50 (V560D/Y823D) [nM] | IC50 [3] [nM] | IC50 (V560D/N822K) [nM]
1 | CCn1c(=O)c(-c2cc(NC(=O)Nc3ccccc3)c(F)cc2Cl)cc2cnc(NC)cc21 [Example 3, 1-(4-chloro-5-(1-ethyl-7-(methylamino)-2-oxo-1,2-dihydro-1,6-naphthyridin-3-yl)-2-fluorophenyl)-3-phenylurea] | 10 to 100 | – | – | – | – | – | – | –
2 | CCn1c(=O)c(-c2cc(NC(=O)Nc3ccccc3)c(F)cc2C)cc2cnc(NC)cc21 [Example 23, 1-(5-(1-ethyl-7-(methylamino)-2-oxo-1,2-dihydro-1,6-naphthyridin-3-yl)-2-fluoro-4-methylphenyl)-3-phenylurea] | 10 to 100 | 10 to 100 | 100 to 1000 | 10 to 100 | > 1000 | < 10 | 10 to 100 | 10 to 100
3 | CCn1c(=O)c(-c2cc(NC(=O)Nc3ccccc3)c(F)cc2Cl)cc2cnc(NCCOC)cc21 [Example 27, 1-(4-chloro-5-(1-ethyl-7-(2-methoxyethylamino)-2-oxo-1,2-dihydro-1,6-naphthyridin-3-yl)-2-fluorophenyl)-3-phenylurea] | 100 to 1000 | – | – | – | – | – | – | –
4 | CCn1c(=O)c(-c2cc(NC(=O)Nc3csc4ccccc34)c(F)cc2Cl)cc2cnc(NC)cc21 [Example 32, 1-(benzo[b]thiophen-3-yl)-3-(4-chloro-5-(1-ethyl-7-(methylamino)-2-oxo-1,2-dihydro-1,6-naphthyridin-3-yl)-2-fluorophenyl)urea] | 10 to 100 | – | – | – | – | – | – | –
5 | CCn1c(=O)c(-c2cc(NC(=O)Nc3cccc(F)c3)c(F)cc2C)cc2cnc(NC)cc21 [Example 44, 1-(5-(1-ethyl-7-(methylamino)-2-oxo-1,2-dihydro-1,6-naphthyridin-3-yl)-2-fluoro-4-methylphenyl)-3-(3-fluorophenyl)urea] | 10 to 100 | – | – | – | – | – | – | –
6 | CCn1c(=O)c(-c2cc(NC(=O)Nc3csc4ccccc34)c(F)cc2C)cc2cnc(NC)cc21 [Example 59, 1-(benzo[b]thiophen-3-yl)-3-(5-(1-ethyl-7-(methylamino)-2-oxo-1,2-dihydro-1,6-naphthyridin-3-yl)-2-fluoro-4-methylphenyl)urea] | – | < 10 | 10 to 100 | 10 to 100 | < 10 | < 10 | – | < 10
